Patent US12168664B2, “Triazolopyrimidines, their preparation and use” (THE TRUSTEES OF COLUMBIA UNIVERSITY IN THE CITY OF NEW YORK, priority 2018, dated 2024)
“And” between values parts separate entries of the source, which are not always exact repeats. Equal values may be shown once.

Assays:
[1] = molecular target: RBP4-TTR interaction (Homo sapiens (Human), UniProt P02753); experiment: HTRF (TR-FRET) assay for antagonists of retinol-induced RBP4-TTR interaction; type: biochemical; details: in the presence of 1 μM retinol
Text: TR-FRET Assay for Retinol-Induced RBP4-TTR Interaction
Binding of a desired RBP4 antagonist displaces retinol and induces hindrance for RBP4-TTR interaction resulting in the decreased FRET signal (FIG. 7). Bacterially expressed MBP-RBP4 and untagged TTR were used in this assay. For the use in the TR-FRET assay, the maltose binding protein (MBP)-tagged human RBP4 fragment (amino acids 19-201) was expressed in the Gold(DE3)pLysS E. coli strain (Stratagene) using the pMAL-c4x vector. Following cell lysis, recombinant RBP4 was purified from the soluble fraction using the ACTA FPLC system (GE Healthcare) equipped with the 5-ml the MBP Trap HP column. Human untagged TTR was purchased from Calbiochem. Untagged TTR was labeled directly with Eu^3+ Cryptate-NHS using the HTRF Cryptate Labeling kit from CisBio following the manufacturer's recommendations. HTRF assay was performed in white low volume 384 well plates (Greiner-Bio) in a final assay volume of 16 μl per well. […] Titration of test compounds in this assay was conducted in the presence of 1 μM retinol. […] TR-FRET signal was measured in the SpectraMax M5e Multimode Plate Reader (Molecular Device). […] The TR-FRET signal was expressed as the ratio of fluorescence intensity: Flu665/Flu620×10,000.
(§1) The compounds listed below were tested in two in vitro assays, RBP4 binding (SPA) and retinol-dependent RBP4-TTR interaction (HTRF) (Table 1).

[2] = molecular target: human RBP4 (Homo sapiens (Human), UniProt P02753); experiment: SPA binding assay for RBP4 (scintillation proximity, 3H-retinol displacement); details: 10 nM 3H-retinol, 50 nM biotinylated RBP4
Procedure: Scintillation Proximity RBP4 Binding Assay
Untagged human RBP4 purified from the urine of tubular proteinuria patients was purchased from Fitzgerald Industries International. It was biotinylated using the EZ-Link Sulfo-NHS-LC-Biotinylation kit from Pierce following the manufacturer's recommendations. […] Nonspecific binding was determined in the presence of 20 μM of unlabeled retinol. The reaction mix was assembled in the dark under dim red light. The plates were sealed with clear tape (TopSeal-A: 96-well microplate, PerkinElmer), wrapped in the aluminum foil, and allowed to equilibrate 6 hours at room temperature followed by overnight incubation at +4° C. Radiocounts were measured using a TopCount NXT counter (Packard Instrument Company).
as §1

[3] = molecular target: PPARγ (Homo sapiens (Human), UniProt P37231); experiment: PPARγ agonist assay (HTRF, PPARγ-NCOR interaction); type: biochemical; details: read-out: PPAR γ assay (HTRF) for agonists of this nuclear receptor - IC50
Sequence of PPARγ (P37231 204-505): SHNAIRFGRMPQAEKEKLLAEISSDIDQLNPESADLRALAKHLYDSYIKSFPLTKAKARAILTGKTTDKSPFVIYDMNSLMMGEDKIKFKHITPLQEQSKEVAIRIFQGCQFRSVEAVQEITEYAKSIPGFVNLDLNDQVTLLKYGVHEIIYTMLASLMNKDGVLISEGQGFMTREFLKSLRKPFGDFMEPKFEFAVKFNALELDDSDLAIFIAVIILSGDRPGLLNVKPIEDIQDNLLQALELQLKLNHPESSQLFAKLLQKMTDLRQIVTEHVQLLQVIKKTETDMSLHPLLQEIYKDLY
Text: Significant safety issues are associated with the clinical use of PPARγ agonists (increased risk of death, myocardial infarction, stroke, congestive heart failure, hepatotoxicity, peripheral edema, weight gain and carcinogenicity^1-4). We wanted to characterize the compounds we identified in a pilot screen as potential PPARγ agonists. The PPARγ assay is based on agonist-sensitive interaction of the GST-tagged ligand-binding domain (LRD) of the nuclear receptor PPARγ with the biotinylated corepressor NCOR peptide (FIG. 8).
Assay reactions are performed in a final volume of 16 ul.
In well of the 384-well assay plate, mix 6 ul of PPARγ solution, 4 ul of NCOR2 solution and 4 μl of Rosi solution. Test compounds diluted from DMSO stocks to 4× assay concentration in 1×HTRF, 100 mM KF buffer may be dispensed to well instead of Rosi. Negative control wells contained DMSO solvent alone; positive control well contained […]. […] Two μl of detection mix was added per well. […] The plate was incubated for 16 hrs at 4° C.
HTRF signal was measured in the SpectraMax M5e Multimode Plate Reader (Molecular Device). Fluorescence was excited at 337 nm. […] The signal was expressed as the ratio of fluorescence intensity: Flu668/Flu620×10,000. […]

[4] = molecular target: CYP2C9 (Homo sapiens (Human), UniProt P11712); experiment: CYP inhibition, fluorescent, CYP2C9; type: in vitro ADME
Sequence of CYP2C9 (P11712 whole entry, species assumed): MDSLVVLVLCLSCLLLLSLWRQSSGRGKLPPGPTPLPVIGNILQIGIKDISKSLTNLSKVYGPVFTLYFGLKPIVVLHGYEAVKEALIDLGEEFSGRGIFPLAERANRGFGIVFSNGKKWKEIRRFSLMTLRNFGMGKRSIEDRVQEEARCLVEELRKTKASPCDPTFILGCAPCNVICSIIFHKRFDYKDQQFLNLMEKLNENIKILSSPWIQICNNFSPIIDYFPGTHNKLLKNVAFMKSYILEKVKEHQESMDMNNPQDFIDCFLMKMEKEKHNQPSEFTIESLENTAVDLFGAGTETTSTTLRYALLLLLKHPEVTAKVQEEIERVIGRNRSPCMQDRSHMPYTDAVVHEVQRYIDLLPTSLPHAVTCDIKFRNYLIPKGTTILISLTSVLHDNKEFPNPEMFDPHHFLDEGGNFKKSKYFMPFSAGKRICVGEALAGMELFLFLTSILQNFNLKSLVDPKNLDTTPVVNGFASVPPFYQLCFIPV
Procedure: (§2) The compounds listed below were tested in various metabolic stability and CYP inhibition assays.

[5] = molecular target: CYP2C19 (Homo sapiens (Human), UniProt P33261); experiment: CYP inhibition, fluorescent, CYP2C19; type: in vitro ADME
Sequence of CYP2C19 (P33261 whole entry, species assumed): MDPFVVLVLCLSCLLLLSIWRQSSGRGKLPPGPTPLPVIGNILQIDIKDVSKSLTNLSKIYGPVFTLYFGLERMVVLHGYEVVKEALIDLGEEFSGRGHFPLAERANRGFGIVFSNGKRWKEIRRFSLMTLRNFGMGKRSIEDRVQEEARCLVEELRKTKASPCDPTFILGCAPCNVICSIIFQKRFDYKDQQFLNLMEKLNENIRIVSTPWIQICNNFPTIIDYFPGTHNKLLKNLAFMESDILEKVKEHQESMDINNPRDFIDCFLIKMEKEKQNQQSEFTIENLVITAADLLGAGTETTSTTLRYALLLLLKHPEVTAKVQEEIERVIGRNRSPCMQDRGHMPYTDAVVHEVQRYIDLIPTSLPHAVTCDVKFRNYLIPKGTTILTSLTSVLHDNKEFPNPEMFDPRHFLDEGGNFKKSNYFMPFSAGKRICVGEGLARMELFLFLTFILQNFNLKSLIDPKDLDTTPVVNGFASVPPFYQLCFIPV
Procedure: as §2

[6] = Metabolic stability in liver microsomes (HLM); type: in vitro ADME, human
Procedure: as §2

[7] = molecular target: CYP2D6 (Homo sapiens (Human), UniProt P10635); experiment: CYP inhibition, fluorescent, CYP2D6; type: in vitro ADME
Sequence of CYP2D6 (P10635 whole entry, species assumed): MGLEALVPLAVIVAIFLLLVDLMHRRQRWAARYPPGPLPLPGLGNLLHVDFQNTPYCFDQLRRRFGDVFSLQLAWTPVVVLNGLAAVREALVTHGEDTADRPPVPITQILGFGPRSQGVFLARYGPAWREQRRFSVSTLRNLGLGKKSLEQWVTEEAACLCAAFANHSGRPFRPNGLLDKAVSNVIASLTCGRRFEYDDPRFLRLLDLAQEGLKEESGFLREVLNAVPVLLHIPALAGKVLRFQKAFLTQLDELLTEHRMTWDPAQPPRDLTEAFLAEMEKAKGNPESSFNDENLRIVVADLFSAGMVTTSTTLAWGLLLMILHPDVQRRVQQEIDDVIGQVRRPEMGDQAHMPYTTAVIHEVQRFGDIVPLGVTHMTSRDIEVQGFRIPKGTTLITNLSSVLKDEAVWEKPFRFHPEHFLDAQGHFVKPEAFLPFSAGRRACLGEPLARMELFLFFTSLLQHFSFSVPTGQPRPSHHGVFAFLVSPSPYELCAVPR
Procedure: as §2

[8] = molecular target: CYP3A4 (Homo sapiens (Human), UniProt P08684); experiment: CYP inhibition, fluorescent, CYP3A4; type: in vitro ADME
Sequence of CYP3A4 (P08684 whole entry, species assumed): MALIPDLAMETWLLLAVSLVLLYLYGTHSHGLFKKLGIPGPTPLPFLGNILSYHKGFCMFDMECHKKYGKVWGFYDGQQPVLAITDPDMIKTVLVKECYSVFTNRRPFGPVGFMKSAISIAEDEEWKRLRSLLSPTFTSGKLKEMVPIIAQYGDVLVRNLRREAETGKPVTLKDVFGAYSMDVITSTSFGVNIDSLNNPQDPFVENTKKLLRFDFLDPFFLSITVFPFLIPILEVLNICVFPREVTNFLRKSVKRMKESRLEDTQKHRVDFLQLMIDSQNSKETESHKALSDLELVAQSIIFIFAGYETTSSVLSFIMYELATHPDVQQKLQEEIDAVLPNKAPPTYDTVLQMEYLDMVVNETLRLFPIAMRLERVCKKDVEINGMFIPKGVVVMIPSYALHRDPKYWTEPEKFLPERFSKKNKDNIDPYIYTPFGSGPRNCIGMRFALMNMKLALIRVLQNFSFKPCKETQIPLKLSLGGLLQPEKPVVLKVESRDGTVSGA
Procedure: as §2

## O=C(c1nnc2ncccn12)N1C[C@H]2C[C@@H](c3ccccc3C(F)(F)F)C[C@H]2C1 [Compound 7b]
[1]
  IC50: 661 nM
[2]
  IC50: 46 nM
[3]
  IC50: > 100000 nM

## O=C(c1nc2ncc(Br)cn2n1)N1C[C@H]2C[C@@H](c3ccccc3C(F)(F)F)C[C@H]2C1 [Compound 7c]
[1]
  IC50: 949 nM
[2]
  IC50: 39 nM
[3]
  IC50: > 100000 nM

## Cc1ccnc2nc(C(=O)N3C[C@H]4C[C@@H](c5ccccc5C(F)(F)F)C[C@H]4C3)nn12 [Compound 7d]
[1]
  IC50: 306 nM and 1850 nM and 2800 nM
[2]
  IC50: 122 nM
[3]
  IC50: > 100000 nM

## Cc1cnc2nc(C(=O)N3C[C@H]4C[C@@H](c5ccccc5C(F)(F)F)C[C@H]4C3)nn2c1 [Compound 7e]
[3]
  IC50: > 100000 nM
[4]
  IC50: 16000 nM and 50000 nM
[5]
  IC50: > 100000 nM
[6]
  Metabolic stability in liver microsomes: % Remaining at 30 min, HLM: 85% and 66%
[7]
  IC50: 12400 nM and 36000 nM

## Cc1cc(C)n2nc(C(=O)N3C[C@H]4C[C@@H](c5ccccc5C(F)(F)F)C[C@H]4C3)nc2n1 [Compound 7f]
[1]
  IC50: 4580 nM and 7440 nM
[2]
  IC50: 108 nM
[3]
  IC50: > 100000 nM

## Cc1ccn2c(C(=O)N3C[C@H]4C[C@@H](c5ccccc5C(F)(F)F)C[C@H]4C3)nnc2n1 [Compound 7g]
[1]
  IC50: 415 nM
[2]
  IC50: 45 nM
[8]
  IC50: > 100000 nM
[3]
  IC50: > 100000 nM
[5]
  IC50: > 100000 nM
[6]
  Metabolic stability in liver microsomes: % Remaining at 30 min, HLM: 61%
[7]
  IC50: > 100000 nM

## O=C(c1nc2ncccn2n1)N1C[C@H]2C[C@@H](c3cc(F)ccc3C(F)(F)F)C[C@H]2C1 [Compound 7h]
[1]
  IC50: 410 nM
[2]
  IC50: 38 nM
[3]
  IC50: > 100000 nM

## O=C(c1nc2ncc(CCO)cn2n1)N1C[C@H]2C[C@@H](c3cc(F)ccc3C(F)(F)F)C[C@H]2C1 [Compound 7i]
[1]
  IC50: 494 nM

## O=C(c1nc2ncc(CCO)cn2n1)N1C[C@H]2C[C@@H](c3ccccc3C(F)(F)F)C[C@H]2C1 [Compound 7j]
[1]
  IC50: 200 nM
[2]
  IC50: 16 nM
[8]
  IC50: > 100000 nM
[3]
  IC50: > 100000 nM
[4]
  IC50: 60000 nM
[5]
  IC50: > 100000 nM
[6]
  Metabolic stability in liver microsomes: % Remaining at 30 min, HLM: 73%
[7]
  IC50: > 100000 nM

## COCCc1cnc2nc(C(=O)N3C[C@H]4C[C@@H](c5ccccc5C(F)(F)F)C[C@H]4C3)nn2c1 [Compound 7k]
[1]
  IC50: 1010 nM
[2]
  IC50: 67 nM
[3]
  IC50: > 100000 nM

## CC(=O)OCCc1cnc2nc(C(=O)N3C[C@H]4C[C@@H](c5ccccc5C(F)(F)F)C[C@H]4C3)nn2c1 [Compound 7l]
[1]
  IC50: 230 nM
[2]
  IC50: 23 nM
[3]
  IC50: > 100000 nM

## NCCc1cnc2nc(C(=O)N3C[C@H]4C[C@@H](c5ccccc5C(F)(F)F)C[C@H]4C3)nn2c1 [Compound 7m]
[1]
  IC50: 1470 nM
[2]
  IC50: 247 nM
[3]
  IC50: > 100000 nM

## O=C(c1nc2ncc(CCCl)cn2n1)N1C[C@H]2C[C@@H](c3ccccc3C(F)(F)F)C[C@H]2C1 [Compound 7n]
[1]
  IC50: 628 nM
[2]
  IC50: 67 nM
[3]
  IC50: > 100000 nM

## O=C(c1nc2ncc(CCO)cn2n1)N1C[C@@H]2CN(c3ccccc3C(F)(F)F)C[C@@H]2C1 [Compound 7o]
[1]
  IC50: 257 nM
[2]
  IC50: 22 nM
[8]
  IC50: > 20000 nM
[3]
  IC50: > 100000 nM
[5]
  IC50: > 20000 nM
[7]
  IC50: > 20000 nM
